From ChEMBL document CHEMBL1121821, “Pyrimidine acyclic nucleosides. 5-Substituted 1-[(2-aminoethoxy)methyl]uracils as candidate antivirals” (J Med Chem, 1981)
Activity calls are given as the source filed them. The rule behind the calls is not given here.

Assays:
[1] = test system: L cells; test: Cytotoxic activity against Detroit 98 or mouse L cell culture at 10E-4 M concentration; No significant activity; assay type: functional, cell-based; details: L929
[2] = test system: Vaccinia virus; test: Compound was tested for antiviral activity against vaccinia virus; little or no activity; assay type: functional, organism-based; details: Orthopoxvirus vaccinia
[3] = test system: Thymidine kinase (Human alphaherpesvirus 1); test: Compound was tested for affinity against HSV-1 Thymidine kinase; Low activity
[4] = test system: Human adenovirus 5; test: Compound was tested for antiviral activity against adenovirus type 5; little or no activity; assay type: functional, organism-based
[5] = test system: Human alphaherpesvirus 1; test: Compound was tested for plaque-inhibition against HSV-1 in cell culture at 50 ug per disk; Inactive; assay type: functional, organism-based
[6] = test system: Thymidine kinase (Human alphaherpesvirus 1); test: Compound was tested for affinity against HSV-1 thymidine kinase; Low activity

Structure (SMILES)	Cytotoxicity [1]	Activity [2]	Activity [3]	Activity [4]	Activity [5]	Activity [6]
NCCOCn1cc(I)c(=O)[nH]c1=O	inactive	Little or no activity	Low activity	Little or no activity	inactive	–
NCCOCn1cc(Cl)c(=O)[nH]c1=O	inactive	Little or no activity	Low activity	Little or no activity	inactive	–
NCCOCn1ccc(=O)[nH]c1=O	inactive	Little or no activity	–	Little or no activity	inactive	Low activity
NCCOCn1cc(Br)c(=O)[nH]c1=O	inactive	Little or no activity	–	Little or no activity	inactive	Low activity
Cc1cn(COCCN)c(=O)[nH]c1=O	inactive	Little or no activity	–	Little or no activity	inactive	Low activity
